According to patent publication US20200131144A1, “AMINE OR (THIO)AMIDE CONTAINING LXR MODULATORS” (Phenex-FXR GmbH, priority 2017, published 2020):
Several values for one entry are separate records, joined by “and”; a condition that tells them apart may be missing. Identical values can stand only once.

Assays:
LXRβ full length (FL) = target: T1, LXRβ full length (FL) (Homo sapiens, UniProt P55055, INS174Q); experiment: LXR Gal4 reporter transient transfection assay, mammalian two-hybrid, FL-M2H Gal4β; format: cell-based; settings: HEK293 cells; inverse agonist unless *
T1 construct: the full length (FL) proteins of LXRα (amino acids 1-447); NP005684; NP009052; expressed in transfected cells; host or cells: HEK293
T1 sequence (P55055 with tags, fused parts or gaps INS174Q): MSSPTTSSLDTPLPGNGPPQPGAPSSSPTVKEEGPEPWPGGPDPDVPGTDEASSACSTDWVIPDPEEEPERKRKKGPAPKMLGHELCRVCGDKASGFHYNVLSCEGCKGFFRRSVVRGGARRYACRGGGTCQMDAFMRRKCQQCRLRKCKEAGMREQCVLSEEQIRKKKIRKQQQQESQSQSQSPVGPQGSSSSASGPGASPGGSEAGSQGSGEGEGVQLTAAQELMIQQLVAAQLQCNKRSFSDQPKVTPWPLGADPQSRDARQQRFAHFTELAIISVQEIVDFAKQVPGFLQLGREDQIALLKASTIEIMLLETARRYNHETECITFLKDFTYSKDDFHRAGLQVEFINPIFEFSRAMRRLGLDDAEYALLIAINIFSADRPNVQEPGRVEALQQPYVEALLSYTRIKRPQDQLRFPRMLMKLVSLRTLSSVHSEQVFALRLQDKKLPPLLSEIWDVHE
Description: (§1) The tested compounds were usually dissolved, tested and stored as 20 mM stock solutions in DMSO. Since sulfonyl acetic acid derivatives tend to decarboxylate under these conditions, these stock solutions were prepared, tested and stored as 20 mM DMSO stock solutions containing 100 mM trifluoroacetic acid (5 equivalents). Sulfonyl acetic acid derivatives are shelf stable as solid at rt for long time as reported by Griesbrecht et al. (Synlett 2010:374) or Faucher et al. (J. Med. Chem. 2004; 47:18).
(§2) LXR Gal4 Reporter Transient Transfection Assays
(§3) LXRα and LXRβ activity status was determined via detection of interaction with coactivator and corepressor proteins in mammalian two-hybrid experiments (M2H). For this, via transient transfection the full length (FL) proteins of LXRα (amino acids 1-447; NP005684; SEQ ID NO:1) or LXRβ-(amino acids 1-461; NP009052; SEQ ID NO:2) or the ligand-binding domains (LBD) of LXRα (amino acids 155-447 SEQ ID NO:3) or LXR (amino acids 156-461; SEQ ID NO:4) were expressed from pCMV-AD (Stratagene) as fusions to the transcriptional activation domain of NFkB. As cofactors, domains of either the steroid receptor coactivator 1 (SRC1; amino acids 552-887; SEQ ID NO:5) or of the corepressor NCoR (amino acids 1906-2312; NP006302; SEQ ID NO:6) were expressed as fusions to the DNA binding domain of the yeast transcription factor GAL4 (from pCMV-BD; Stratagene). Interaction was monitored via activation of a coexpressed Firefly Luciferase Reporter gene under control of a promoter containing repetitive GAL4 response elements (vector pFRLuc; Stratagene). Transfection efficiency was controlled via cotransfection of constitutively active pRL-CMV Renilla reniformis luciferase reporter (Promega). HEK293 cells were grown in minimum essential medium (MEM) with 2 mM L-glutamine and Earle's balanced salt solution supplemented with 8.3% fetal bovine serum, 0.1 mM non-essential amino acids, 1 mM sodium pyruvate, at 37° C. in 5% CO2. 3.5×10^4 cells/well were plated in 96-well cell culture plates in growth medium supplemented with 8.3% fetal bovine serum for 16-20 h to—90% confluency. For transfection, medium was taken off and LXR and cofactor expressing plasmids as well as the reporter plasmids are added in 30 μL OPTIMEM/well including polyethylene-imine (PEI) as vehicle. Typical amounts of plasmids transfected/well: pCMV-AD-LXR (5 ng), pCMV-BD-cofactor (5 ng), pFR-Luc (100 ng), pRL-CMV (0.5 ng). Compound stocks were prepared in DMSO, prediluted in MEM to a total volume of 120 μL, and added 4 h after addition of the transfection mixture (final vehicle concentration not exceeding 0.2%). Cells were incubated for additional 16 h, lysed for 10 min in 1×Passive Lysis Buffer (Promega) and Firefly and Renilla luciferase activities were measured sequentially in the same cell extract using buffers containing D-luciferine and coelenterazine, respectively. Measurements of luminescence were done in a BMG-luminometer.

[1] = target: T2, GST-LXRβ ligand-binding domain (Homo sapiens, UniProt P55055, INS174Q); experiment: TR-FRETβ activity assay (NCoA3 coactivator peptide recruitment); format: biochemical; settings: 1 μM 24(S)-25-epoxycholesterol as prestimulating agonist; inverse agonist unless *
T2 construct: amino acids 156-461; NP009052; made in house; host or cells: E. coli
T2 sequence (P55055 with tags, fused parts or gaps INS174Q limits assumed): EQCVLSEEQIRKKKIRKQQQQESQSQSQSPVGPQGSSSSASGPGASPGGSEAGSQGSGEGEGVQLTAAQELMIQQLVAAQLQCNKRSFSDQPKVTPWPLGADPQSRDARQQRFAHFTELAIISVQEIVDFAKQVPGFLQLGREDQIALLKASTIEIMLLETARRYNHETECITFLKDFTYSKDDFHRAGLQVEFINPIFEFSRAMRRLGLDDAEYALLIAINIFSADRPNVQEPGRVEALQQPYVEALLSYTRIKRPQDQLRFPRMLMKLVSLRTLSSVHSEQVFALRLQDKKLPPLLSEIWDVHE
Description: The tested compounds were usually dissolved, tested and stored as 20 mM stock solutions in DMSO. […] Sulfonyl acetic acid derivatives are shelf stable as solid at rt for long time as reported by Griesbrecht et al. (Synlett 2010:374) or Faucher et al. (J. Med. Chem. 2004; 47:18). TR-FRETβ Activity Assay Recombinant GST-LXRβ ligand-binding domain (LBD; amino acids 156-461; NP009052; SEQ ID NO:4) was expressed in E. coli and purified via gluthatione-sepharose affinity chromatography. N-terminally biotinylated NCoA3 coactivator peptide (SEQ ID NO:7) was chemically synthesized (Eurogentec). […] Finally, a detection mix was added containing anti GST-Tb cryptate (CisBio; 610SAXLB) and Streptavidin-XL665 (CisBio; 610SAXLB) as fluorescent donor and acceptor, respectively, as well as the coactivator peptide and LXRβ-LBD protein (SEQ ID NO:4). The reaction was mixed thoroughly, equilibrated for 1 h at 4° C. and vicinity of LXRβ and coactivator peptide was detected by measurement of fluorescence in a VictorX4 multiplate reader (PerkinElmer Life Science) using 340 nm as excitation and 615 and 665 nm as emission wavelengths. Assays were performed in triplicates. Final Assay Concentrations of Components: 240 mM KCl, 1 μg/μL BSA, 0.002% Triton-X-100, 125 pg/μL anti GST-Tb cryptate, 2.5 ng/μL Streptavidin-XL665, coactivator peptide (400 nM), LXRP protein ([…], i.e. 76 nM).

LXRα full length (FL) = target: T3, LXRα full length (FL) (Homo sapiens, UniProt Q13133); experiment: LXR Gal4 reporter transient transfection assay, mammalian two-hybrid, FL-M2H Gal4α; format: cell-based; settings: HEK293 cells; inverse agonist unless *
T3 construct: the full length (FL) proteins of LXRα (amino acids 1-447); NP005684; expressed in transfected cells; host or cells: HEK293
T3 sequence (Q13133 1-447): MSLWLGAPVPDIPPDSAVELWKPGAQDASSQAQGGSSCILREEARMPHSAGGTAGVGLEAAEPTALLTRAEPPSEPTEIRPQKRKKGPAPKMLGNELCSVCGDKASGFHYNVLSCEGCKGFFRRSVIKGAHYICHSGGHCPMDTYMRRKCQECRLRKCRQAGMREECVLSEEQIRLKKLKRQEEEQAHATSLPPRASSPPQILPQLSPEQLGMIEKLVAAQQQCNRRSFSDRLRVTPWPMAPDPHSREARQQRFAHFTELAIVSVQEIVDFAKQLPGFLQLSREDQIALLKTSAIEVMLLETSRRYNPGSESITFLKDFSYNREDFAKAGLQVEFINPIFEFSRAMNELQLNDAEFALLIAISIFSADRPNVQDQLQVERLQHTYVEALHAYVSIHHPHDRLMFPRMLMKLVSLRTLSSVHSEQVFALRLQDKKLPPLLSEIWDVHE
Description: as §1, §2, §3

EC50 (LXRβ full length (FL))	EC50 [1] [µM]	EC50 (LXRα full length (FL)) [µM]	FRETβ [1]	SMILES
< 0.1 µM	< 0.1	0.1 to 1	–	Cc1cc(C)c(CN(Cc2ccc(-c3cccc(S(=O)(=O)CC(=O)N(C)O)c3)cc2)Cc2ccc(C(F)(F)F)o2)c(C)c1 [5/2]
1 to 10 µM	0.1 to 1	1 to 10	–	Cc1ccc2ccccc2c1C(=O)N(Cc1ccc(-c2cccc(S(=O)(=O)CC(=O)NS(C)(=O)=O)c2)cc1)Cc1ccc(C(F)(F)F)o1 [5/4]
0.1 to 1 µM	1 to 10	0.1 to 1	–	O=C(O)CS(=O)(=O)c1cccc(-c2ccc(CN(Cc3ccc(C(F)(F)F)o3)Cc3cccc4ccccc34)cc2)c1 [7/2]
1 to 10 µM and 0.1 to 1 µM	–	1 to 10	B*	O=C(O)CS(=O)(=O)c1cccc(-c2ccc(CN(Cc3ccc(C(F)(F)F)o3)Cc3ccc(F)c4cccnc34)cc2)c1 [7/3]
0.1 to 1 µM	0.1 to 1	0.1 to 1	–	COc1ccc2ccccc2c1CN(Cc1ccc(-c2cccc(S(=O)(=O)CC(=O)O)c2)cc1)Cc1ccc(C(F)(F)F)o1 [7/5]
0.1 to 1 µM	1 to 10	0.1 to 1	–	Cc1sc2ccccc2c1CN(Cc1ccc(-c2cccc(S(=O)(=O)CC(=O)O)c2)cc1)Cc1ccc(C(F)(F)F)o1 [7/6]
0.1 to 1 µM	0.1 to 1	1 to 10	–	O=C(O)CS(=O)(=O)c1cccc(-c2ccc(CN(Cc3ccc(C(F)(F)F)o3)Cc3c(Cl)cccc3Cl)cc2)c1 [7/10]
0.1 to 1 µM	1 to 10	0.1 to 1	–	Cc1cc(C)c(CN(Cc2ccc(-c3cccc(S(=O)(=O)CC(=O)O)c3)cc2)C(C)c2ccc(C(F)(F)F)o2)c(C)c1 (stereo not drawn) [7/12]
1 to 10 µM	1 to 10	1 to 10	–	Cc1cc(C)c(CN(Cc2ccc(-c3cccc(S(=O)(=O)CC(=O)O)c3)cc2)Cc2ccc(C(=O)N(C)C)o2)c(C)c1 [7/13]
0.1 to 1 µM	1 to 10	1 to 10	–	Cc1cc(C)c(CN(Cc2ccc(-c3cccc(S(=O)(=O)CC(=O)O)c3)cc2)Cc2cccc(C(F)(F)F)c2)c(C)c1 [7/14]
< 0.1 µM	< 0.1	< 0.1	–	Cc1ccc2ccccc2c1C(=O)N(Cc1ccc(-c2cccc([C@H](C)C(=O)O)c2)cc1)Cc1ccc(C(F)(F)F)o1 [10/6]
0.1 to 1 µM	0.1 to 1	0.1 to 1	–	Cc1cc(C)c(CN(Cc2ccc(-c3cc(F)cc(S(=O)(=O)CC(=O)O)c3)cc2)Cc2ccc(C(F)(F)F)o2)c(C)c1 [12/1]
0.1 to 1 µM	1 to 10	1 to 10	–	Cc1cc(C)c(CN(Cc2ccc(C(F)(F)F)o2)Cc2ccc(-c3cccc(S(=O)(=O)CC(=O)O)c3)cc2C)c(C)c1 [15/1]
0.1 to 1 µM	1 to 10	0.1 to 1	–	Cc1ccc2ccccc2c1CN(Cc1ccc(-c2cc(F)c(CO)c(S(=O)(=O)CC(=O)O)c2)cc1)Cc1ccc(C(F)(F)F)o1 [22/7]
< 0.1 µM	1 to 10	0.1 to 1	–	COc1cc(-c2cc(F)c(CO)c(S(=O)(=O)CC(=O)O)c2)ccc1CN(Cc1ccc(C(F)(F)F)o1)Cc1c(C)ccc2ccccc12 [22/9]
0.1 to 1 µM	1 to 10	1 to 10	–	COc1cc(-c2cc(F)c(CO)c(S(=O)(=O)CC(=O)O)c2)ccc1CN(Cc1ccc(C(F)(F)F)o1)Cc1c(C)cc(C)cc1C [22/10]
0.1 to 1 µM	1 to 10	0.1 to 1	–	Cc1cc(C)c(C(=O)N(Cc2ccc(-c3cc(F)c(CO)c(S(=O)(=O)CC(=O)O)c3)cc2)Cc2ccc(C(F)(F)F)o2)c(C)c1 [22/13]
0.1 to 1 µM	> 10	1 to 10	–	Cc1ccc2ccccc2c1CN(Cc1ccc(-c2cncc(S(=O)(=O)CC(=O)O)c2)cc1)Cc1ccc(C(F)(F)F)o1 [26/7]
< 0.1 µM	1 to 10	0.1 to 1	–	Cc1ccc2ccccc2c1C(=O)N(Cc1ccc(-c2cccc(C(C)(C)C(=O)O)c2)cc1)Cc1ccc(C(C)(C)C)o1 [27/1]
